Experimental data reported in PubChem BioAssay AID624090 (The Scripps Research Institute Molecular Screening Center, 2012).
The source made the active and inactive calls.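 The calls were made as follows: active = AmpC beta-lactamase inhibition with IC50 of 10 µM or lower; inactive = the rest.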

Biological target: AmpC beta-lactamase (Escherichia coli)
Assay: E. coli AmpC beta-lactamase inhibitors, broad-spectrum VIM-2 effort – biochemical, absorbance, probe candidates and analogs, selectivity assay for nonselective VIM-2 inhibitor project, late-stage follow-up (AID 624090)
Details: recombinant AmpC, nitrocefin hydrolysis

SMILES: CN1CCN(NC(=O)CN2C(=O)/C(=C/c3c(Cl)cccc3Cl)SC2=S)CC1
- IC50: > 60 µM (inactive)

SMILES: CN1CCN(NC(=O)CN2C(=O)/C(=C/c3c(Cl)ccc(Cl)c3Cl)SC2=S)CC1
- IC50: > 60 µM (inactive)
